Results taken from patent US9499509B2, “Dihydrochalcone derivatives and their use as antibiotic agents” (UNIVERSITÉ DU QUÉBEC À CHICOUTIMI, priority 2012, dated 2016).
In brackets after ≈: the same amount, converted by molar mass.

Tests used:
WS-1 cell lines = assay: Cytotoxicity assay on WS-1 (Example 2); format: cell-based; design: unit not given here; details: Table 7; WS-1, 48 h
Protocol: Cytotoxicity assay. […] The WS-1 cell lines were provided by ATCC. […] The compounds tested were then added at 8 different concentrations. […] In Table 7, the therapeutic indexes of compounds IV to XXI are presented.

MRSA strains = assay: Antibiotic assay (absorption 660 nm, Example 2), MRSA strains; format: cell-based, Staphylococcus aureus
Protocol: (§1) Antibiotic agents. Gentamicin sulfate was provided by Calbiochem. Chloramphenicol was provided by Sigma-Aldrich.
(§2) Antibiotic assay. […] The bacteria strains were inoculated in nutrients broth. […] All bacteria were plated in nutrients broth at a concentration of 450 000 bacteria/m L.
(§3) Compounds IV to XXI were diluted in dimethylsulfoxide. […] The compounds were tested at 8 different concentrations.
(§4) Each well contained: 100 μL of bacteria, 100 μL of the compounds tested. The plates were incubated at 37° C. for 6 h. The absorption was read using a Varioskan flash multimode Reader™ (Thermo Scientific) at 660 nm.
(§5) MRSA. Ten (10) strains of MRSA obtained as described above were tested along with an S. aureus wild type (WT) strain (ATCC 25923).

[1] = tested on: S. aureus wild type strain (ATCC 25923); assay: Antibiotic assay (absorption 660 nm, Example 2), S. aureus wild type; format: cell-based, Staphylococcus aureus; details: for MIC: S. aureus WT (ATCC 25923); for S. aureus WT ATCC 25923 (toxicity on bacteria): Table 7, same values as MIC of Table 6
Protocol: as §1, §2, §3, §4, §5

MIC (MRSA strains; MRSA 1) [µM]	MIC (MRSA strains; MRSA 2) [µM]	MIC (MRSA strains; MRSA 3) [µM]	MIC (MRSA strains; MRSA 4) [µM]	MIC (MRSA strains; MRSA 5) [µM]	MIC (MRSA strains; MRSA 6) [µM]	MIC (MRSA strains; MRSA 7) [µM]	MIC (MRSA strains; MRSA 8) [µM]	MIC (MRSA strains; MRSA 9) [µM]	MIC (MRSA strains; MRSA 10) [µM]	MIC [1] [µM]	SMILES	WS-1 (toxicity on normal cells, fibroblast) (WS-1 cell lines)	S. aureus WT ATCC 25923 (toxicity on bacteria) [1]
13 ± 1 (≈ 5.28 µg/mL)	12 ± 1 (≈ 4.88 µg/mL)	16.7 ± 0.5 (≈ 6.79 µg/mL)	15 ± 1 (≈ 6.1 µg/mL)	5.1 ± 0.2 (≈ 2.07 µg/mL)	6 ± 2 (≈ 2.44 µg/mL)	8.2 ± 0.7 (≈ 3.33 µg/mL)	10.2 ± 0.8 (≈ 4.15 µg/mL)	17 ± 1 (≈ 6.91 µg/mL)	17 ± 1 (≈ 6.91 µg/mL)	13.0 ± 0.8 (≈ 5.28 µg/mL)	O=C(CCc1ccccc1)c1c(O)cc(O)c2c1OC(c1ccc(O)cc1)C(O)C2 (stereo not shown) [XVII]	>50	13.0 ± 0.8
21.9 ± 0.2 (≈ 8.9 µg/mL)	25 ± 2 (≈ 10.2 µg/mL)	18 ± 1 (≈ 7.32 µg/mL)	22 ± 2 (≈ 8.94 µg/mL)	20 ± 2 (≈ 8.13 µg/mL)	20 ± 3 (≈ 8.13 µg/mL)	18.5 ± 0.4 (≈ 7.52 µg/mL)	23.4 ± 1.0 (≈ 9.51 µg/mL)	20 ± 2 (≈ 8.13 µg/mL)	11.4 ± 0.6 (≈ 4.63 µg/mL)	10.9 ± 0.6 (≈ 4.43 µg/mL)	O=C(CCc1ccccc1)c1c(O)cc2c(c1O)CC(O)C(c1ccc(O)cc1)O2 (stereo not shown) [XIV]	>50	10.9 ± 0.6
5.6 ± 0.5 (≈ 2.28 µg/mL)	4.7 ± 0.4 (≈ 1.91 µg/mL)	5.1 ± 0.3 (≈ 2.07 µg/mL)	5.7 ± 0.4 (≈ 2.32 µg/mL)	4.1 ± 0.6 (≈ 1.67 µg/mL)	5.4 ± 0.7 (≈ 2.19 µg/mL)	3.5 ± 0.3 (≈ 1.42 µg/mL)	5.3 ± 0.6 (≈ 2.15 µg/mL)	4.8 ± 0.2 (≈ 1.95 µg/mL)	3.3 ± 0.1 (≈ 1.34 µg/mL)	5.9 ± 0.3 (≈ 2.4 µg/mL)	O=C(CCc1ccccc1)c1c(O)cc(O)c2c1OC(c1ccc(O)cc1)C(O)C2 (racemic) [XVI]	>50	5.9 ± 0.3
5.2 ± 0.4 (≈ 2.19 µg/mL)	5.7 ± 0.4 (≈ 2.4 µg/mL)	4 (≈ 1.68 µg/mL)	3 (≈ 1.26 µg/mL)	4 ± 2 (≈ 1.68 µg/mL)	9 ± 1 (≈ 3.78 µg/mL)	5.3 ± 0.2 (≈ 2.23 µg/mL)	–	5.3 ± 0.4 (≈ 2.23 µg/mL)	5.6 ± 0.5 (≈ 2.35 µg/mL)	5.3 ± 0.6 (≈ 2.23 µg/mL)	COc1cc(O)c(C(=O)CCc2ccc(O)cc2)c2c1CCC(c1ccc(O)cc1)O2 (racemic) [X]	16 ± 4	5.3 ± 0.6

Second part, the compound before the results:

SMILES	MIC (MRSA strains; MRSA 1) [µM]	MIC (MRSA strains; MRSA 2) [µM]	MIC (MRSA strains; MRSA 3) [µM]	MIC (MRSA strains; MRSA 4) [µM]	MIC (MRSA strains; MRSA 5) [µM]	MIC (MRSA strains; MRSA 6) [µM]	MIC (MRSA strains; MRSA 7) [µM]	MIC (MRSA strains; MRSA 8) [µM]	MIC (MRSA strains; MRSA 9) [µM]	MIC (MRSA strains; MRSA 10) [µM]	MIC [1] [µM]	WS-1 (toxicity on normal cells, fibroblast) (WS-1 cell lines)	S. aureus WT ATCC 25923 (toxicity on bacteria) [1]
O=C(CCc1ccccc1)c1c(O)cc(O)c2c1O[C@H](c1ccc(O)cc1)CC2 [V]	4.1 ± 0.1 (≈ 1.6 µg/mL)	2.58 ± 0.10 (≈ 1.01 µg/mL)	3.8 ± 0.2 (≈ 1.48 µg/mL)	4.7 ± 0.4 (≈ 1.84 µg/mL)	4.4 ± 0.1 (≈ 1.72 µg/mL)	6.9 ± 0.4 (≈ 2.69 µg/mL)	3.0 ± 0.2 (≈ 1.17 µg/mL)	3.8 ± 0.4 (≈ 1.48 µg/mL)	6.2 ± 0.4 (≈ 2.42 µg/mL)	5.0 ± 0.3 (≈ 1.95 µg/mL)	2.5 ± 0.2 (≈ 0.976 µg/mL)	>50	2.5 ± 0.2
COc1ccc(CCC(=O)c2c(O)cc(O)c3c2O[C@H](c2ccc(O)cc2)CC3)cc1 [VIII]	>50	>50	>50	>50	>50	>50	>50	>50	>50	>50	>50	>50	>50
O=C(CCc1ccccc1)c1c(O)cc(O)c2c1OC(c1ccc(O)cc1)CC2 (racemic) [IV]	0.84 ± 0.04 (≈ 0.328 µg/mL)	1.50 ± 0.06 (≈ 0.586 µg/mL)	1.02 ± 0.06 (≈ 0.398 µg/mL)	2.6 ± 0.2 (≈ 1.02 µg/mL)	0.95 ± 0.01 (≈ 0.371 µg/mL)	2.11 ± 0.07 (≈ 0.824 µg/mL)	1.22 ± 0.04 (≈ 0.476 µg/mL)	1.35 ± 0.05 (≈ 0.527 µg/mL)	1.32 ± 0.04 (≈ 0.515 µg/mL)	1.23 ± 0.08 (≈ 0.48 µg/mL)	1.27 ± 0.06 (≈ 0.496 µg/mL)	16 ± 2	1.27 ± 0.06
COc1ccc(CCC(=O)c2c(O)cc(O)c3c2OC(c2ccc(O)cc2)CC3)cc1 (racemic) [VII]	2.9 ± 0.1 (≈ 1.22 µg/mL)	2.5 ± 0.1 (≈ 1.05 µg/mL)	1.7 ± 0.1 (≈ 0.715 µg/mL)	2.4 ± 0.2 (≈ 1.01 µg/mL)	2.0 ± 0.1 (≈ 0.841 µg/mL)	2.7 ± 0.1 (≈ 1.14 µg/mL)	2.13 ± 0.02 (≈ 0.896 µg/mL)	2.2 ± 0.5 (≈ 0.925 µg/mL)	2.5 ± 0.2 (≈ 1.05 µg/mL)	1.2 ± 0.2 (≈ 0.505 µg/mL)	2.2 ± 0.2 (≈ 0.925 µg/mL)	26	2.2 ± 0.2
